Measurements: US8889721B2, “Clothianidin, metofluthrin, and piperonyl butoxide mixture for bed bug control” (priority 2012, dated 2014)

How the values were obtained:
[1] = system: Winston Salem-strain bed bugs; assay: Residual exposure to mixtures on wood panels, mortality/morbidity and knockdown (Example 7); type: in vivo, Cimex lectularius
Procedure: (§1) A bioassay was performed to determine the knockdown and mortality rates of bed bugs exposed to the residual of mixtures of clothianidin, metofluthrin, and PBO. Two bed bug (Cimex lectularius) strains were used; Harlan-strain which is susceptible to pyrethroids, and Winston Salem-strain which is known to have a 500-fold resistance level to deltamethrin. In this bioassay, a mixture of clothianidin, metofluthrin, and PBO with fumed silica was compared to combinations of clothianidin and metofluthrin, clothianidin and PBO, and clothianidin.
(§2) Unpainted wood was cut into 6 inch square panels and a DeVries spray booth was used to deliver 1 ml of test substance in an even spray that provided approximately 1 gal/1000 sq. ft. delivery rate. A cone jet nozzle was used approximately 12 inches directly above the wood panels. The panels were allowed to dry and then aged indoors in a climate controlled environment with temperatures ranging from approximately 65 to 72 degrees Fahrenheit. All tests were done in 4 replicates (40 total insects per treatment).
(§3) Insects were fed a blood meal the day prior to testing. The inner walls of Petri dishes were treated with Fluon to prevent the insects from attaching to the sides of the dishes during treatment.
(§4) On the day of testing, 10 insects were placed in each Petri dish. The bed bugs were separated with tweezers and observed to be healthy and active before treatments. The Petri dishes were inverted onto the treated surface and gentle tapping was sometimes used to dislodge the insects from the dishes. After 5 minutes, the insects were returned to containers for mortality/morbidity and knockdown observations.
(§5) Insects were considered moribund when they were knocked down and unable to right themselves when probed. Insects were considered dead when they had no body movement. Untreated controls were handled in the same manner except that they were exposed to water treated wood panels.
(§6) Insects were exposed to the wood panels on day 1 and day 30. Mortality and morbidity observations were taken until the untreated control mortality reached […] (day 7 following exposure).
(§7) The bed bugs were observed and recordings were taken at 10, 20, 30, 60 and 240 minutes following exposure to the wood panels. Table 4 provides the percentage of bed bugs from all 4 replicates (40 total insects per treatment) that were knocked down 10 and 240 minutes after exposure to the wood panels.

Harlan-strain bed bugs = assay: as above; type: in vivo, Cimex lectularius; details: for % Morbidity / % Mortality: Residual Efficacy at Day 30
Procedure: as §1, §2, §3, §4, §5, §6, §7

[2] = Residual Efficacy at Day 1, 1 day
[3] = Residual Efficacy at Day 1, 2 day
[4] = Residual Efficacy at Day 1, 3 day
[5] = Residual Efficacy at Day 30, 1 DAT
[6] = Residual Efficacy at Day 30, 2 DAT
[7] = Residual Efficacy at Day 30, 3 DAT
[8] = Residual Efficacy at Day 30, 4 DAT
[9] = Residual Efficacy at Day 30, 5 DAT
[10] = Residual Efficacy at Day 30, 6 DAT
[11] = Residual Efficacy at Day 30, 7 DAT

CN/C(=N\[N+](=O)[O-])NCc1cnc(Cl)s1 [0.4% Cloth.]
Knockdown ([1]; Day 1 @ 10 minutes): 0% | Knockdown ([1]; Day 1 @ 240 minutes): 50% | Knockdown ([1]; Day 30 @ 10 minutes): 3% | Knockdown ([1]; Day 30 @ 240 min): 28% | % Morbidity [1, 2]: 18% | % Mortality [1, 2]: 60% | % Mortality + Morbidity [1, 2]: 78% | % Morbidity [1, 3]: 18% | % Mortality [1, 3]: 60% | % Mortality + Morbidity [1, 3]: 78% | % Morbidity [1, 4]: 12.5% | % Mortality [1, 4]: 87.5% | % Mortality + Morbidity [1, 4]: 100% | % Morbidity [1, 5]: 33% | % Mortality [1, 5]: 10% | % Morbidity [1, 6]: 28% | % Mortality [1, 6]: 20% | % Morbidity [1, 7]: 18% | % Mortality [1, 7]: 43% | % Morbidity [1, 8]: 10% | % Mortality [1, 8]: 53% | % Morbidity [1, 9]: 8% | % Mortality [1, 9]: 63% | % Morbidity [1, 10]: 3% | % Mortality [1, 10]: 70% | % Morbidity [1, 11]: 5% | % Mortality [1, 11]: 70% | Knockdown (Harlan-strain bed bugs; Day 1 @ 10 minutes): 48% | Knockdown (Harlan-strain bed bugs; Day 1 @ 240 minutes): 95% | Knockdown (Harlan-strain bed bugs; Day 30 @ 10 minutes): 20% | Knockdown (Harlan-strain bed bugs; Day 30 @ 240 min): 95% | % Morbidity (Harlan-strain bed bugs; 1 DAT): 75% | % Mortality (Harlan-strain bed bugs; 1 DAT): 23% | % Morbidity (Harlan-strain bed bugs; 2 DAT): 33% | % Mortality (Harlan-strain bed bugs; 2 DAT): 68% | % Morbidity (Harlan-strain bed bugs; 3 DAT): 0% | % Mortality (Harlan-strain bed bugs; 3 DAT): 100%
